Data set [1] addresses T1, Platelet GPIIb/IIIa (Canis lupus familiaris, UniProt A0A8I3N5G5+A0A8I3PMU9).
T1 construct: from tissue
T1 sequence (A0A8I3N5G5 1-1047): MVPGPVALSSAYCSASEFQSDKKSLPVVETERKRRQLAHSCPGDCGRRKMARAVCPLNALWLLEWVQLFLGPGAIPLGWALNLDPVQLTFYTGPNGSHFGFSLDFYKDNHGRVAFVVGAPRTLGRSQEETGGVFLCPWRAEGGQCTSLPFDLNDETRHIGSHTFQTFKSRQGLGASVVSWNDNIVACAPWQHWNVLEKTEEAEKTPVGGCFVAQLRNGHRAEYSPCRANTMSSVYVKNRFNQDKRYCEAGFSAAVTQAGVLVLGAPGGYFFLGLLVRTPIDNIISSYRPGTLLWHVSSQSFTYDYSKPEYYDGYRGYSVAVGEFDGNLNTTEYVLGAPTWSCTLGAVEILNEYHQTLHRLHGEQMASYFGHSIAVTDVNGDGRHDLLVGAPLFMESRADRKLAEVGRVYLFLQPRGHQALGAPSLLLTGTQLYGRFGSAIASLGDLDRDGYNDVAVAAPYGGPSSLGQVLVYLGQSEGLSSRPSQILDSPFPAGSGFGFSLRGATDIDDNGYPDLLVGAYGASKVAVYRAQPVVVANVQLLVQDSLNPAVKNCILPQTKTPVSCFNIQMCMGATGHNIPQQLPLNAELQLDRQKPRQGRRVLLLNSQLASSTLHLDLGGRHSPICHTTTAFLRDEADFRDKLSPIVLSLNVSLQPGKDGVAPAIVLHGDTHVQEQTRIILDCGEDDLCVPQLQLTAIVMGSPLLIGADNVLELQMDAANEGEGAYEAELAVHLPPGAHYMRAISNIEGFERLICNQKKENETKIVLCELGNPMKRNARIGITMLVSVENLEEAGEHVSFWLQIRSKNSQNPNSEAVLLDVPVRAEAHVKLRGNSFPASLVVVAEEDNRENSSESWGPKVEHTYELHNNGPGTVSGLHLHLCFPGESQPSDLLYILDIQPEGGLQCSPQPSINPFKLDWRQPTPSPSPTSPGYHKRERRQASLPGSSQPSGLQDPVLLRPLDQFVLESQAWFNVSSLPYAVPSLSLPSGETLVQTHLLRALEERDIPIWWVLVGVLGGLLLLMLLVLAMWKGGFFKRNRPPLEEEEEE
T1 sequence (A0A8I3PMU9 1-919): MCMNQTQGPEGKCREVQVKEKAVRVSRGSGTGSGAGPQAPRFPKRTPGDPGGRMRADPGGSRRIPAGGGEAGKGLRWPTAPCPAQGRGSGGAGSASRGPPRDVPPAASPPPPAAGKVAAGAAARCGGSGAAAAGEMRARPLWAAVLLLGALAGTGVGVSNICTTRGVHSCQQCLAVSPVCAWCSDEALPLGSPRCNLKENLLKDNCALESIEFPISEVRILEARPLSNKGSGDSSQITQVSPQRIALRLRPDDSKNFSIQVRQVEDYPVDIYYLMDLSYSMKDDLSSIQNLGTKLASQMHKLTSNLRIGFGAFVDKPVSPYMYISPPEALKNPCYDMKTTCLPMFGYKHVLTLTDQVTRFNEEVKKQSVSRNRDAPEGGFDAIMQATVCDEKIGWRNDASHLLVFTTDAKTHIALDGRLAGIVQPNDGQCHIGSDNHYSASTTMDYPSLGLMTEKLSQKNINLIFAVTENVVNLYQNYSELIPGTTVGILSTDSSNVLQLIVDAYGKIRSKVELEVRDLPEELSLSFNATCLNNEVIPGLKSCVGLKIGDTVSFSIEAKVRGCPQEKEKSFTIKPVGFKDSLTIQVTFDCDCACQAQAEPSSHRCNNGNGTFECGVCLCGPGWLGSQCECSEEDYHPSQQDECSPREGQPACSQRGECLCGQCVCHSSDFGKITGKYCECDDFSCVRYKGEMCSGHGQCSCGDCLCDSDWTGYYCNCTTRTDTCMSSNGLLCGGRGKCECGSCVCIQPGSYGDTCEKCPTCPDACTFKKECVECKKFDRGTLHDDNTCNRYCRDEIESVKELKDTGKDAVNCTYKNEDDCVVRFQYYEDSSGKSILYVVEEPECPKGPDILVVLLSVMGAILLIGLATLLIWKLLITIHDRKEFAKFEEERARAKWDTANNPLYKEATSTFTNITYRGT
The data set can be described thus: Platelet GPIIb/IIIa binding assay (inhibition of 125I-fibrinogen binding to activated platelets). Particulars: reagents (compounds of Examples 1-3); activated canine platelets. Here is the method: Platelet GPIIb/IIIa Binding Assay:
During isolation, platelets were rendered quiescent by the addition of aspirin and when appropriate, primed by the addition of PGE 1. Experimentation was completed in a microtiter format with final concentrations between 1 and 2×10^7 platelets/well. Platelets were activated by the addition of CaCl2 (2 mM) and thrombin (0.2 U/mL) while non-activated platelets received buffer. Hirudin (0.5 U/mL) was added to stop the activation reaction.

Data set [2] can be described thus: Blood clearance in canine deep vein thrombosis (DVT) model. The settings on record: both, mongrel, dog, iv. How it is done:
(§1) Canine Deep Vein Thrombosis Model: This model incorporates the triad of events (hypercoagulatible state, period of stasis, low shear environment) essential for the formation of a venous fibrin-rich actively growing thrombus. The procedure was as follows: Adult mongrel dogs of either sex (9-13 kg) were anesthetized with pentobarbital sodium (35 mg/kg,i.v.) and ventilated with room air via an endotracheal tube (12 strokes/min, 25 ml/kg). For arterial pressure determination, the right femoral artery was cannulated with a saline-filled polyethylene catheter (PE-240) and connected to a Statham pressure transducer (P23ID; Oxnard, Calif.). Mean arterial blood pressure was determined via damping the pulsatile pressure signal. Heart rate was monitored using a cardiotachometer (Biotach, Grass Quincy, Mass.) triggered from a lead II electrocardiogram generated by limb leads. The right femoral vein was cannulated (PE-240) for drug administration. A 5 cm segment of both jugular veins was isolated, freed from fascia and circumscribed with silk suture. A microthermister probe was placed on the vessel which serves as an indirect measure of venous flow. A balloon embolectomy catheter was utilized to induce the 15 min period of stasis during which time a hypercoagulatible state was then induced using 5 U thrombin (American Diagnosticia, Greenwich Conn.) administered into the occluded segment. Fifteen minutes later, flow was reestablished by deflating the balloon. The radiopharmaceutical was infused during the first 5 minutes of reflow and the rate of incorporation monitored using gamma scintigraphy.

Data set [3] relates to venous thrombus. The data set can be described thus: Thrombus imaging in canine deep vein thrombosis (DVT) model, gamma scintigraphy (camera ROI). The class given is in vivo, dog. Particulars: for efficacy as thrombus imaging agent (in words): dog DVT model; for Thrombus to Blood Ratio in DVT Model (Camera ROI) / Thrombus to Muscle Ratio in DVT Model (Camera ROI): dog. How it is done:
as §1

Non-standard residues stand in square brackets, D forms with d. Residues, ends and D or L forms follow the SMILES beside them. *: point of attachment. X1 = O=C(c1ccc(NN=Cc2ccccc2S(=O)(=O)O)nc1)*; NMeR = CN[C@@H](CCCNC(=N)N)C(=O)O; HYNIC = NNc1ccc(C(=O)*)cn1; 3Amb = NCc1cccc(C(=O)O)c1

One may read the IC50 as the concentration that gives 50% inhibition. Higher therefore signals a need for much substance. In general, tissue uptake refers to the share of the injected amount in each gram of the tissue.

Compound `CC(C)[C@H]1NC(=O)c2cc(cc(CNC(=O)[C@H](CC(=O)O)NC(=O)c3ccc(N/N=C/c4ccccc4S(=O)(=O)O)nc3)c2)CNC(=O)[C@H](CC(=O)O)NC(=O)CNC(=O)[C@H](CCCNC(=N)N)N(C)C1=O` [Example 1] registered an IC50 in data set [1] of 7 nM.

In turn, `N=C(N)c1ccc(C2=NOC(CC(=O)NCC(NC(=O)c3ccc(NN=Cc4ccccc4S(=O)(=O)O)nc3)C(=O)O)C2)cc1` (stereo not drawn) [Example 3] gave an IC50 in data set [1] of 66 nM. This IC50 is about 9.4-fold higher than that of the compound before.

The compound `CN1C(=O)[C@@H](CCCCNC(=O)c2ccc(NN=Cc3ccccc3S(=O)(=O)O)nc2)NC(=O)c2cccc(c2)CNC(=O)[C@H](CC(=O)O)NC(=O)CNC(=O)[C@@H]1CCCNC(=N)N` [Example 2, cyclo{N-Me-Arg-Gly-Asp-Mamb-D-Lys([2-[[[5-[carbonyl]-2-pyridinyl]hydrazono]methyl]-benzenesulfonic acid])}] (cyclo([NMeR]GD[3Amb][dK](X1))) came in with an IC50 in data set [1] of 14 nM.

In the case of `CN1C(=O)[C@@H](CCCCNC(=O)c2ccc(NN)nc2)NC(=O)c2cccc(c2)CNC(=O)[C@H](CC(=O)O)NC(=O)CNC(=O)[C@@H]1CCCNC(=N)N` (99mTc complex, metal not drawn) [Example 5] (cyclo([NMeR]GD[3Amb][dK](HYNIC))), in data set [2], the tissue uptake at 0 h was 0.11 ± 0.01 %ID/g, the tissue uptake at 0.25 h was 0.039 ± 0.003 %ID/g, the tissue uptake at 0.5 h stood at 0.027 ± 0.003 %ID/g and the tissue uptake at 1 h stood at 0.021 ± 0.002 %ID/g. In data set [2], this compound returned a tissue uptake at 1.5 h of 0.018 ± 0.002 %ID/g and a tissue uptake at 2 h of 0.017 ± 0.002 %ID/g. In data set [3], the “efficacy as thrombus imaging agent (in words)” value (shortened to “efficacy”) is “effective thrombus imaging agents”. Besides, in data set [3] (time 15 min, listed as Ex. 5), the “Thrombus to Blood Ratio in DVT Model (Camera ROI)” value (“Thrombus to Blood Ratio” below) is recorded as 1.64 ± 0.21 and the “Thrombus to Muscle Ratio in DVT Model (Camera ROI)” value (“Thrombus to Muscle Ratio” below) worked out at 2.12 ± 0.29. In data set [3] (time 30 min), the “Thrombus to Blood Ratio” value was determined as 1.86 ± 0.23 and the “Thrombus to Muscle Ratio” value is on record as 2.27 ± 0.29. Also, in data set [3] (time 60 min, listed as Ex. 5), the “Thrombus to Blood Ratio” value was 2.13 ± 0.23 and the “Thrombus to Muscle Ratio” value is reported as 2.66 ± 0.29. Moreover, in data set [3] (time 120 min), the “Thrombus to Blood Ratio” value is listed as 2.57 ± 0.25 and the “Thrombus to Muscle Ratio” value was 3.34 ± 0.18.

In data set [2], `CC(C)[C@H]1NC(=O)c2cc(cc(NC(=O)CCCCCNC(=O)c3ccc(NN)nc3)c2)CNC(=O)[C@H](CC(=O)O)NC(=O)CNC(=O)[C@H](CCCNC(=N)N)N(C)C1=O` [Example 7, ^99mTc(cyclo(D-Val-NmeArg-Gly-Asp-Mamb(hydrazino-nicotinyl-5-Aca)))(tricine)(TPPTS), metal not drawn] displayed a tissue uptake at 0 h of 0.119 ± 0.003 %ID/g, a tissue uptake at 0.25 h of 0.08 ± 0.003 %ID/g, a tissue uptake at 0.5 h of 0.066 ± 0.004 %ID/g and a tissue uptake at 1 h of 0.059 ± 0.001 %ID/g. In data set [2], this compound yielded a tissue uptake at 1.5 h of 0.05 ± 0.002 %ID/g and a tissue uptake at 2 h of 0.049 ± 0.001 %ID/g. Further, the “efficacy” value in data set [3] is “effective thrombus imaging agents”. Also, in data set [3] (time 15 min, listed as Ex. 7), the “Thrombus to Blood Ratio” value was found to be 2.10 ± 0.10 and the “Thrombus to Muscle Ratio” value came to 3.40 ± 0.30. In data set [3] (time 30 min), the “Thrombus to Blood Ratio” value was found to be 3.10 ± 0.42 and the “Thrombus to Muscle Ratio” value is recorded as 4.80 ± 0.38. In data set [3] (time 60 min, listed as Ex. 7), the “Thrombus to Blood Ratio” value is listed as 5.30 ± 0.91 and the “Thrombus to Muscle Ratio” value was determined as 7.00 ± 1.40. In addition, in data set [3] (time 120 min), the “Thrombus to Blood Ratio” value was determined as 6.60 ± 1.42 and the “Thrombus to Muscle Ratio” value is reported as 9.90 ± 2.64.

In data set [2], `CC(C)[C@H]1NC(=O)c2cc(cc(CNC(=O)[C@H](CC(=O)O)NC(=O)c3ccc(NN)nc3)c2)CNC(=O)[C@H](CC(=O)O)NC(=O)CNC(=O)[C@H](CCCNC(=N)N)N(C)C1=O` (99mTc complex, metal not drawn) [Example 4] showed a tissue uptake at 0 h of 0.141 %ID/g, a tissue uptake at 0.25 h of 0.07 %ID/g, a tissue uptake at 0.5 h of 0.067 %ID/g and a tissue uptake at 1 h of 0.053 %ID/g. In addition, in data set [2], the tissue uptake at 1.5 h was determined as 0.046 %ID/g and the tissue uptake at 2 h was 0.045 %ID/g. Moreover, the “efficacy” value in data set [3] is on record as “effective thrombus imaging agents”. In data set [3] (time 15 min, listed as Ex. 4), the “Thrombus to Blood Ratio” value is 2.00 ± 0.25 and the “Thrombus to Muscle Ratio” value came to 3.18 ± 0.45. Further, in data set [3] (time 30 min), the “Thrombus to Blood Ratio” value is given as 2.29 ± 0.60 and the “Thrombus to Muscle Ratio” value came to 4.31 ± 1.33. In addition, in data set [3] (time 60 min, listed as Ex. 4), the “Thrombus to Blood Ratio” value stood at 2.86 ± 0.31 and the “Thrombus to Muscle Ratio” value came out at 4.31 ± 0.79. Further, in data set [3] (time 120 min), the “Thrombus to Blood Ratio” value worked out at 3.36 ± 0.99 and the “Thrombus to Muscle Ratio” value was found to be 4.70 ± 1.05.
